Patent US8563715B2, “Pyrimidine derivative having cell protecting effect and uses thereof” (Zenyaku Kogyo Kabushikikaisha, priority 2008, dated 2013)

**Q.** For `c1ccc(N2CCN(c3nc(N4CCOCC4)cc(N4CCOCC4)n3)CC2)cc1` [Compound 1, 4,6-dimorpholino-2-(4-phenylpiperazin-1-yl)pyrimidine], which melting point is on record?
**A.** 182 to 184 °C

**Q.** With `c1ccc2c(c1)CN(c1nc(N3CCOCC3)cc(N3CCOCC3)n1)C2` [Compound 10, 2-(isoindolin-2-yl)-4,6-dimorpholinopyrimidine] as the compound, how does the melting point read?
**A.** 194 to 198 °C

**Q.** For `c1cnc(N2CCN(c3nc(N4CCOCC4)cc(N4CCOCC4)n3)CC2)nc1` [Compound 14, 4,6-dimorpholino-2-[4-(pyrimidin-2-yl)piperazin-1-yl]pyrimidine], which melting point is on record?
**A.** 212 to 215 °C

**Q.** Which melting point does the source give for `c1ccc(C2CN(c3nc(N4CCOCC4)cc(N4CCOCC4)n3)CCN2)cc1` (centres unmarked) [Compound 16, 4,6-dimorpholino-2-(3-phenylpiperazin-1-yl)pyrimidine] here?
**A.** 100 to 104 °C

**Q.** For `c1ccc(C2CN(c3cc(N4CCOCC4)nc(N4CCOCC4)n3)CCN2)cc1` (centres unmarked) [Compound 17, 2,4-dimorpholino-6-(3-phenylpiperazin-1-yl)pyrimidine], which melting point is on record?
**A.** 181 to 185 °C

**Q.** Which melting point does the source give for `Fc1ccc(N2CCN(c3nc(N4CCOCC4)cc(N4CCOCC4)n3)CC2)cc1` [Compound 20, 2-[4-(4-fluorophenyl)piperazin-1-yl]-4,6-dimorpholinopyrimidine] here?
**A.** 196 to 199 °C

**Q.** Which melting point does the source give for `Fc1ccc(N2CCN(c3cc(N4CCOCC4)nc(N4CCOCC4)n3)CC2)cc1` [Compound 21, 4-[4-(4-fluorophenyl)piperazin-1-yl]-2,6-dimorpholinopyrimidine] here?
**A.** 215 to 218 °C

**Q.** With `Cc1ccc(N2CCN(c3nc(N4CCOCC4)cc(N4CCOCC4)n3)CC2)cc1` [Compound 22, 2-[4-(4-methylphenyl)piperazin-1-yl]-4,6-dimorpholinopyrimidine] as the compound, how does the melting point read?
**A.** 191 to 194 °C

**Q.** With `CC(=O)c1ccc(N2CCN(c3nc(N4CCOCC4)cc(N4CCOCC4)n3)CC2)cc1` [Compound 24, 2-[4-(4-acetylphenyl)piperazin-1-yl]-4,6-dimorpholinopyrimidine] as the compound, how does the melting point read?
**A.** 162 to 166 °C

**Q.** Which melting point does the source give for `CC(=O)c1ccc(N2CCN(c3cc(N4CCOCC4)nc(N4CCOCC4)n3)CC2)cc1` [Compound 25, 4-[4-(4-acetylphenyl)piperazin-1-yl]-2,6-dimorpholinopyrimidine] here?
**A.** 198 to 201 °C

**Q.** Which melting point does the source give for `Clc1ccccc1N1CCN(c2nc(N3CCOCC3)cc(N3CCOCC3)n2)CC1` [Compound 26, 2-[4-(2-chlorophenyl)piperazin-1-yl]-4,6-dimorpholinopyrimidine] here?
**A.** 156 °C

**Q.** For `CCOc1ccccc1N1CCN(c2nc(N3CCOCC3)cc(N3CCOCC3)n2)CC1` [Compound 27, 2-[4-(2-ethoxyphenyl)piperazin-1-yl]-4,6-dimorpholinopyrimidine], which melting point is on record?
**A.** 184 °C

**Q.** For `Cc1ccccc1N1CCN(c2nc(N3CCOCC3)cc(N3CCOCC3)n2)CC1` [Compound 28, 2-[4-(2-methylphenyl)piperazin-1-yl]-4,6-dimorpholino-pyrimidine], which melting point is on record?
**A.** 149 °C

**Q.** With `Cc1cccc(N2CCN(c3nc(N4CCOCC4)cc(N4CCOCC4)n3)CC2)c1C` [Compound 29, 4,6-dimorpholino-2-[4-(2,3-xylyl)piperazin-1-yl]pyrimidine] as the compound, how does the melting point read?
**A.** 141 °C

**Q.** For `Fc1ccccc1N1CCN(c2nc(N3CCOCC3)cc(N3CCOCC3)n2)CC1` [Compound 31, 2-[4-(2-fluorophenyl)piperazin-1-yl]-4,6-dimorpholinopyrimidine], which melting point is on record?
**A.** 148 °C

**Q.** Which melting point does the source give for `COc1ccccc1N1CCN(c2nc(N3CCOCC3)cc(N3CCOCC3)n2)CC1` [Compound 32, 2-[4-(2-methoxyphenyl)piperazin-1-yl]-4,6-dimorpholinopyrimidine] here?
**A.** 214 °C

**Q.** For `Clc1ccc(N2CCN(c3nc(N4CCOCC4)cc(N4CCOCC4)n3)CC2)cc1` [Compound 33, 2-[4-(4-chlorophenyl)piperazin-1-yl]-4,6-dimorpholinopyrimidine], which melting point is on record?
**A.** 213 °C

**Q.** With `OC1(c2ccccc2)CCN(c2nc(N3CCOCC3)cc(N3CCOCC3)n2)CC1` [Compound 36, 2-(4-hydroxy-4-phenylpiperidin-1-yl)-4,6-dimorpholinopyrimidine] as the compound, how does the melting point read?
**A.** 157 to 159 °C

**Q.** With `OC1(c2ccccc2)CCN(c2cc(N3CCOCC3)nc(N3CCOCC3)n2)CC1` [Compound 37, 4-(4-hydroxy-4-phenylpiperidin-1-yl)-2,6-dimorpholinopyrimidine] as the compound, how does the melting point read?
**A.** 189 to 192 °C

**Q.** Which melting point does the source give for `CC(=O)C1(c2ccccc2)CCN(c2nc(N3CCOCC3)cc(N3CCOCC3)n2)CC1` [Compound 38, 2-(4-acetyl-4-phenylpiperidin-1-yl)-4,6-dimorpholinopyrimidine] here?
**A.** 115 to 118 °C

**Q.** With `CC(=O)C1(c2ccccc2)CCN(c2cc(N3CCOCC3)nc(N3CCOCC3)n2)CC1` [Compound 39, 4-(4-acetyl-4-phenylpiperidin-1-yl)-2,6-dimorpholinopyrimidine] as the compound, how does the melting point read?
**A.** 146 to 147 °C

**Q.** With `C1=C(c2ccccc2)CCN(c2nc(N3CCOCC3)cc(N3CCOCC3)n2)C1` [Compound 40, 4,6-dimorpholino-2-[4-phenyl (1,2,5,6-tetrahydropyridin-1-yl)]pyrimidine] as the compound, how does the melting point read?
**A.** 157 to 160 °C

**Q.** Which melting point does the source give for `C1=C(c2ccccc2)CCN(c2cc(N3CCOCC3)nc(N3CCOCC3)n2)C1` [Compound 41, 2,4-dimorpholino-6-[4-phenyl (1,2,5,6-tetrahydropyridin-1-yl)]pyrimidine] here?
**A.** 165 to 168 °C

**Q.** With `c1c(N2CCOCC2)nc(N2CCN(C3CCCCC3)CC2)nc1N1CCOCC1` [Compound 42, 2-[4-(4-cyclohexyl)piperazin-1-yl]-4,6-dimorpholinopyrimidine] as the compound, how does the melting point read?
**A.** 171 to 174 °C

**Q.** Which melting point does the source give for `c1c(N2CCOCC2)nc(N2CCOCC2)nc1N1CCN(C2CCCCC2)CC1` [Compound 43, 4-[4-(4-cyclohexyl)piperazin-1-yl]-2,6-dimorpholinopyrimidine] here?
**A.** 144 to 147 °C

**Q.** With `Cc1c(N2CCOCC2)nc(N2CCN(c3ccccc3)CC2)nc1N1CCOCC1` [Compound 44, 5-methyl-4,6-dimorpholino-2-(4-phenylpiperazin-1-yl)pyrimidine] as the compound, how does the melting point read?
**A.** 99 to 102 °C

**Q.** Which melting point does the source give for `Cc1c(N2CCOCC2)nc(N2CCOCC2)nc1N1CCN(c2ccccc2)CC1` [Compound 45, 5-methyl-2,4-dimorpholino-6-(4-phenylpiperazin-1-yl)pyrimidine] here?
**A.** 149 to 152 °C

**Q.** With `c1ccc(-c2c(N3CCOCC3)nc(N3CCN(c4ccccc4)CC3)nc2N2CCOCC2)cc1` [Compound 46, 4,6-dimorpholino-5-phenyl-2-(4-phenylpiperazin-1-yl)pyrimidine] as the compound, how does the melting point read?
**A.** 163 to 165 °C

**Q.** With `c1ccc(-c2c(N3CCOCC3)nc(N3CCOCC3)nc2N2CCN(c3ccccc3)CC2)cc1` [Compound 47, 2,4-dimorpholino-5-phenyl-6-(4-phenylpiperazin-1-yl)pyrimidine] as the compound, how does the melting point read?
**A.** 203 to 206 °C

**Q.** Which melting point does the source give for `c1ccc(Cc2c(N3CCOCC3)nc(N3CCN(c4ccccc4)CC3)nc2N2CCOCC2)cc1` [Compound 48, 5-benzyl-4,6-dimorpholino-2-(4-phenylpiperazin-1-yl)pyrimidine] here?
**A.** 141 to 144 °C

**Q.** Which melting point does the source give for `c1ccc(Cc2c(N3CCOCC3)nc(N3CCOCC3)nc2N2CCN(c3ccccc3)CC2)cc1` [Compound 49, 5-benzyl-2,4-dimorpholino-6-(4-phenylpiperazin-1-yl)pyrimidine] here?
**A.** 162 to 165 °C

**Q.** With `COc1c(N2CCOCC2)nc(N2CCOCC2)nc1N1CCN(c2ccccc2)CC1` [Compound 50, 5-methoxy-2,4-dimorpholino-6-(4-phenylpiperazin-1-yl)pyrimidine] as the compound, how does the melting point read?
**A.** 118 to 120 °C

**Q.** Which melting point does the source give for `O=CN1CCN(c2cc(N3CCOCC3)nc(N3CCN(c4ccccc4)CC3)n2)CC1` [Compound 53, 4-(4-formylpiperazin-1-yl)-6-morpholino-2-(4-phenylpiperazin-1-yl)pyrimidine] here?
**A.** 171 to 172 °C

**Q.** For `CC(=O)N1CCN(c2cc(N3CCOCC3)nc(N3CCN(c4ccccc4)CC3)n2)CC1` [Compound 54, 4-(4-acetylpiperazin-1-yl)-6-morpholino-2-(4-phenylpiperazin-1-yl)pyrimidine], which melting point is on record?
**A.** 171 to 172 °C

**Q.** With `CCCCN(CCCC)c1cc(N2CCOCC2)nc(N2CCN(c3ccccc3)CC2)n1` [Compound 55, 6-dibutylamino-4-morpholino-2-(4-phenylpiperazin-1-yl)pyrimidine] as the compound, how does the melting point read?
**A.** 84 to 85 °C

**Q.** With `Fc1ccccc1N1CCN(c2cc(N3CCOCC3)nc(N3CCN(c4ccccc4)CC3)n2)CC1` [Compound 58, 4-[4-(2-fluorophenyl)piperazin-1-yl]-6-morpholino-2-(4-phenylpiperazin-1-yl)pyrimidine] as the compound, how does the melting point read?
**A.** 90 to 91 °C

**Q.** Which melting point does the source give for `Fc1ccccc1N1CCN(c2cc(N3CCOCC3)nc(N3CCN(c4ccccc4F)CC3)n2)CC1` [Compound 59, 2,4-bis[4-(2-fluorophenyl)piperazin-1-yl]-6-morpholinopyrimidine] here?
**A.** 98 to 99 °C

**Q.** With `Cc1ccccc1N1CCN(c2cc(N3CCOCC3)nc(N3CCN(c4ccccc4F)CC3)n2)CC1` [Compound 60, 2-[4-(2-fluorophenyl)piperazin-1-yl]-4-[4-(2-methylphenyl)piperazin-1-yl]-6-morpholinopyrimidine] as the compound, how does the melting point read?
**A.** 98 to 99 °C

**Q.** For `Cc1ccccc1N1CCN(c2cc(N3CCOCC3)nc(N3CCN(c4ccccc4C)CC3)n2)CC1` [Compound 62, 2,4-bis[4-(2-methylphenyl)piperazin-1-yl]-6-morpholinopyrimidine], which melting point is on record?
**A.** 98 to 99 °C

**Q.** For `CC(=O)Nc1c(N2CCOCC2)nc(N2CCN(c3ccccc3)CC2)nc1N1CCOCC1` [Compound 77, 5-acetylamino-4,6-dimorpholino-2-(4-phenylpiperazin-1-yl)pyrimidine], which melting point is on record?
**A.** 229 to 230 °C

**Q.** With `COc1ccc(/C=C/c2nc(N3CCOCC3)c(NC(C)=O)c(N3CCOCC3)n2)cc1` [Compound 79, 5-acetylamino-2-[2-(4-methoxyphenyl)vinyl]-4,6-dimorpholinopyrimidine] as the compound, how does the melting point read?
**A.** 189 to 191 °C

**Q.** For `CCNc1c(N2CCOCC2)nc(N2CCN(c3ccccc3)CC2)nc1N1CCOCC1` [Compound 80, 5-ethylamino-4,6-dimorpholino-2-(4-phenylpiperazin-1-yl)pyrimidine], which melting point is on record?
**A.** 100 to 104 °C

**Q.** Which melting point does the source give for `Fc1c(N2CCOCC2)nc(N2CCOCC2)nc1N1CCN(Cc2ccccc2)CC1` [Compound 90, 4-(4-benzylpiperazin-1-yl)-5-fluoro-2,6-dimorpholinopyrimidine] here?
**A.** 108 to 111 °C

**Q.** For `Fc1c(N2CCOCC2)nc(N2CCN(c3ncccn3)CC2)nc1N1CCOCC1` [Compound 92, 5-fluoro-4,6-dimorpholino-2-[4-(pyrimidin-2-yl)piperazin-1-yl]pyrimidine], which melting point is on record?
**A.** 163 to 165 °C
